{"source": "patent US8211631B2", "about": "“In vitro model of spinal muscular atrophy” (Wisconsin Alumni Research Foundation, priority 2008, dated 2012)", "assay_type_in_all_cases": "cell-based, human", "key": {"iPS-WT cells": {"test_system": "iPS-WT cells", "assay": "Nuclear gem localization (SMN immunostaining) in iPS-WT-derived neurons and astrocytes after drug treatment", "details": "1 mM valproic acid or tobramycin; 2 days of drug treatment", "protocol": "(§1) Immunocytochemistry. Cells were fixed in 4% paraformaldehyde or 1:1 acetone/methanol for 20 min at room temperature and rinsed with PBS. Nonspecific labeling was blocked and the cells were permeabilized with 5% normal goat serum and/or 5% normal donkey serum containing 0.2% Triton X-100 in PBS for 30 min at room temperature. Cells were rinsed with PBS and then incubated with primary antibodies for 1 h at room temperature or overnight at 4° C. Cells were then labeled with the appropriate fluorescently tagged secondary antibodies. Hoechst nuclear dye was used to label nuclei. Gems were counted in 100 nuclei, and positively stained neurons were counted and measured on five areas on each of three coverslips using Metamorph software. All data were analyzed using Prizm statistical software.\n(§2) Finally, we assessed whether SMN-inducing compounds could increase SMN levels in the iPS-SMA cellular context because this would be an important proof-of-principle for the further development of drug screens. […] We are at present assessing gem formation in differentiating motor neurons and have shown that they can indeed be detected (FIG. 14A, B)."}, "iPS-SMA cells": {"test_system": "iPS-SMA cells", "assay": "Nuclear gem localization (SMN immunostaining) in iPS-SMA-derived neurons and astrocytes after drug treatment", "details": "1 mM valproic acid or tobramycin; 2 days of drug treatment; gems counted in 100 nuclei; P<0.05, ANOVA", "protocol": "as §1, §2"}, "[1]": {"test_system": "SMN protein in iPS-SMA cells", "assay": "Western blot analysis of SMN protein in drug-treated iPS-SMA cells", "details": "corrected to beta-actin, two days after drug treatment, 1 mM valproic acid or tobramycin, n=3", "protocol": "Protein isolation and western blot analysis. Cells were isolated, suspended in 1% Triton X-100 lysis buffer supplemented with 1% protease inhibitor cocktail (Sigma), triturated and centrifuged at 16,060 g for 10 min at 4° C. Ten to twenty micrograms of protein was separated on 12% SDS-polyacrylamide gel, transferred to a nitrocellulose membrane and probed with a primary antibody against SMN (mouse monoclonal), followed by a horseradish-peroxidase-conjugated secondary antibody (Promega), and then visualized using ECL chemiluminescence (Amersham). As a control, the membrane was stripped and re-probed for beta-actin. For semiquantitative analysis, SMN signal intensity was analyzed and corrected with respect to beta-actin.\nas §2, with “screens. SMN protein is found in both the cytoplasm and nuclear aggregate structures called gems, and the number of gems present is inversely correlated to disease severity (Coovert, D. D. et al. The survival motor neuron protein in spinal muscular atrophy, Hum. Mol. Genet. 6, 1205-1214, 1997).” for “screens.”"}}, "note": "“Also recorded” adds a separate entry of the source."}
{"smiles": "CCCC(CCC)C(=O)O", "note": "[valproic acid]", "values": [{"measurement": "gem localization in treated compared to untreated iPS-WT cells", "setting": "iPS-WT cells", "value": "no significant increase in gem localization"}, {"measurement": "number of gems in treated compared to untreated iPS-SMA cells", "setting": "iPS-SMA cells", "value": "significant increase in the number of gems; also recorded: significantly increased the number of gems"}, {"measurement": "increase in SMN protein levels compared to untreated iPS-SMA cells", "setting": "[1]", "value": 2, "unit": "fold"}]}
{"smiles": "NC[C@H]1O[C@H](O[C@H]2[C@H](O)[C@@H](O[C@H]3O[C@H](CO)[C@@H](O)[C@H](N)[C@H]3O)[C@H](N)C[C@@H]2N)[C@H](N)C[C@@H]1O", "note": "[tobramycin]", "values": [{"measurement": "gem localization in treated compared to untreated iPS-WT cells", "setting": "iPS-WT cells", "value": "no significant increase in gem localization"}, {"measurement": "number of gems in treated compared to untreated iPS-SMA cells", "setting": "iPS-SMA cells", "value": "significant increase in the number of gems; also recorded: significantly increased the number of gems"}, {"measurement": "increase in SMN protein levels compared to untreated iPS-SMA cells", "setting": "[1]", "value": 3, "unit": "fold"}]}
